Reference: ChEMBL document CHEMBL1201862, “PubChem BioAssay data set” (2004)
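96-well plates; 48 h exposure; 5 concentrations. Endpoints by linear interpolation between flanking doses. Not reached: highest tested concentration assigned. GI50 marks 50% less growth.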 Activity calls are given as the source filed them. No stated cut-off is given here; in the data, active = GI50 up to about 1.1 µM and inactive = higher.

Legend:
Test in all cases: NCI tumour cell line growth inhibition, 48 h
SNB-19 = tested on: SNB-19
HCC 2998 = tested on: HCC 2998
HL-60 = tested on: HL-60
UO-31 = tested on: UO-31
NCI-H460 = tested on: NCI-H460
NCI-H23 = tested on: NCI-H23
U-251 = tested on: U-251
SNB-75 = tested on: SNB-75
COLO 205 = tested on: COLO 205
OVCAR-8 = tested on: OVCAR-8
ACHN = tested on: ACHN
A549 = tested on: A549
M14 = tested on: M14
TK-10 = tested on: TK-10
786-0 = tested on: 786-0
SW-620 = tested on: SW-620
HCT-15 = tested on: HCT-15

SMILES	GI50 (SNB-19)	GI50 (HCC 2998)	GI50 (HL-60)	GI50 (UO-31)	GI50 (NCI-H460)	GI50 (NCI-H23)	GI50 (U-251)	GI50 (SNB-75)	GI50 (COLO 205)	GI50 (OVCAR-8)	GI50 (ACHN)	GI50 (A549)	GI50 (M14)	GI50 (TK-10)	GI50 (786-0)	GI50 (SW-620)	GI50 (HCT-15)
O=C1CC2C(=O)N(Cc3ccccc3)C1C=C2S(=O)(=O)c1ccccc1 (stereo unspecified)	> 100 µM (inactive)	> 100 µM (inactive)	> 100 µM (inactive)	> 100 µM (inactive)	> 100 µM (inactive)	> 100 µM (inactive)	> 100 µM (inactive)	> 100 µM (inactive)	> 100 µM (inactive)	> 100 µM (inactive)	> 100 µM (inactive)	> 100 µM (inactive)	> 100 µM (inactive)	> 100 µM (inactive)	> 100 µM (inactive)	> 100 µM (inactive)	
COc1ccc(C2=C3c4cc(OC)c(OC)cc4CCN3C(=S)SS2)cc1OC	69 µM (inactive)	> 100 µM (inactive)	24.4 µM (inactive)	> 100 µM (inactive)	> 100 µM (inactive)	50.7 µM (inactive)	61.1 µM (inactive)	25.1 µM (inactive)	> 100 µM (inactive)	> 100 µM (inactive)	54.8 µM (inactive)	> 100 µM (inactive)	98.2 µM (inactive)	> 100 µM (inactive)	> 100 µM (inactive)	95.9 µM (inactive)	77.6 µM
CN(C)CCn1c2ccccc2c2nc3cc4ccccc4cc3nc21	13.5 µM (inactive)	5.69 µM (inactive)	1.86 µM (inactive)	5.07 µM (inactive)	0.796 µM (active)	8.91 µM (inactive)	6.79 µM (inactive)		1.87 µM (inactive)	5.9 µM (inactive)	2.48 µM (inactive)	3.67 µM (inactive)	4.1 µM (inactive)	10.5 µM (inactive)	3.23 µM (inactive)	3.48 µM (inactive)	4.81 µM
Cc1c(CCl)c(=O)oc2c(C)c3occ(CCl)c(=O)c3cc12	25.8 µM (inactive)	> 100 µM (inactive)	4.72 µM (inactive)	17.5 µM (inactive)	> 100 µM (inactive)	31.6 µM (inactive)	> 100 µM (inactive)	17.2 µM (inactive)	16 µM (inactive)	> 100 µM (inactive)	> 100 µM (inactive)	> 100 µM (inactive)	17 µM (inactive)	> 100 µM (inactive)	> 100 µM (inactive)	> 100 µM (inactive)	25 µM
O=C1CC23CC(=O)CC2(C1)c1ccccc1C3=O (stereo unspecified)	> 100 µM (inactive)	> 100 µM (inactive)	> 100 µM (inactive)	> 100 µM (inactive)	> 100 µM (inactive)	> 100 µM (inactive)	> 100 µM (inactive)	> 100 µM (inactive)	> 100 µM (inactive)	> 100 µM (inactive)	> 100 µM (inactive)	> 100 µM (inactive)	> 100 µM (inactive)	> 100 µM (inactive)	> 100 µM (inactive)	> 100 µM (inactive)	
CCCCCCCCCCCC(=O)OCCOCCOCCOCCOCCOC(=O)CCCCCCCCCCC	> 100 µM (inactive)	> 100 µM (inactive)	37.6 µM (inactive)	> 100 µM (inactive)	> 100 µM (inactive)	> 100 µM (inactive)	> 100 µM (inactive)	> 100 µM (inactive)	> 100 µM (inactive)	> 100 µM (inactive)	> 100 µM (inactive)	> 100 µM (inactive)	> 100 µM (inactive)	> 100 µM (inactive)	> 100 µM (inactive)	> 100 µM (inactive)	> 100 µM
O=C(Nc1cc(C(F)(F)F)ccc1Cl)C(=O)C(C(=O)c1ccc2ccccc2c1)C1OC(=O)c2ccccc21 (stereo unspecified)	6.21 µM (inactive)	10.1 µM (inactive)	11 µM (inactive)	12.4 µM (inactive)	3.79 µM (inactive)	5.26 µM (inactive)	2 µM (inactive)	7.41 µM (inactive)	10.4 µM (inactive)	5.09 µM (inactive)	17 µM (inactive)	9.57 µM (inactive)	12.2 µM (inactive)	20.7 µM (inactive)	5.26 µM (inactive)	6.35 µM (inactive)	6.32 µM
NNC(=S)N/N=C(/C(=O)Nc1cc(Cl)ccc1Cl)C1C(=O)Nc2ccccc2[S+]1[O-] (stereo unspecified)	> 100 µM (inactive)	> 100 µM (inactive)	> 100 µM (inactive)	> 100 µM (inactive)	> 100 µM (inactive)	> 100 µM (inactive)	> 100 µM (inactive)	> 100 µM (inactive)	> 100 µM (inactive)	> 100 µM (inactive)	> 100 µM (inactive)	73.3 µM (inactive)	> 100 µM (inactive)	> 100 µM (inactive)	> 100 µM (inactive)	> 100 µM (inactive)	> 100 µM
O=C(NCCCN1CCN(CCCNC(=O)c2cccc3ccccc23)CC1)c1cccc2ccccc12	76.7 µM (inactive)	35.1 µM (inactive)	79.6 µM (inactive)	32.3 µM (inactive)	93.1 µM (inactive)	57.8 µM (inactive)	97.5 µM (inactive)	20.9 µM (inactive)	> 100 µM (inactive)	> 100 µM (inactive)	> 100 µM (inactive)	> 100 µM (inactive)	> 100 µM (inactive)	65.3 µM (inactive)	44.1 µM (inactive)	> 100 µM (inactive)	> 100 µM
C=C1C[C@]23CCC4C(C)(C)C(=O)CC[C@]4(C)C2C[C@H]1C(O)C3=O (stereo partly specified)	> 75 µM (inactive)		> 75 µM (inactive)	> 75 µM (inactive)		> 75 µM (inactive)	> 75 µM (inactive)	> 75 µM (inactive)	> 75 µM (inactive)	> 75 µM (inactive)	> 75 µM (inactive)	> 75 µM (inactive)	> 75 µM (inactive)		> 75 µM (inactive)	> 75 µM (inactive)	> 75 µM
CC#Cc1c(C#CC)c(OC)c2c(c1OC)C(=O)c1ccccc1C2=O	20.3 µM (inactive)	> 100 µM (inactive)	33 µM (inactive)	26 µM (inactive)	> 100 µM (inactive)	29.8 µM (inactive)	21.4 µM (inactive)		> 100 µM (inactive)	66.5 µM (inactive)	14.3 µM (inactive)	88.3 µM (inactive)	33.6 µM (inactive)	41.8 µM (inactive)	23.3 µM (inactive)	> 100 µM (inactive)	61.7 µM
CCc1cccc(CC)c1NC(=O)CC1SC(N)=NC1=O (stereo unspecified)	> 100 µM (inactive)	> 100 µM (inactive)	> 100 µM (inactive)	> 100 µM (inactive)	> 100 µM (inactive)	> 100 µM (inactive)	> 100 µM (inactive)	> 100 µM (inactive)	> 100 µM (inactive)	> 100 µM (inactive)	> 100 µM (inactive)	> 100 µM (inactive)	> 100 µM (inactive)	> 100 µM (inactive)	> 100 µM (inactive)	> 100 µM (inactive)	> 100 µM
COC(=O)C(C(=O)C(=O)Nc1c(Cl)cc([N+](=O)[O-])cc1Cl)c1nc2cc(C)c(C)cc2nc1O (stereo unspecified)	> 100 µM (inactive)	> 100 µM (inactive)	> 100 µM (inactive)	> 100 µM (inactive)	> 100 µM (inactive)	> 100 µM (inactive)	> 100 µM (inactive)	86.5 µM (inactive)	> 100 µM (inactive)	> 100 µM (inactive)	> 100 µM (inactive)	> 100 µM (inactive)	> 100 µM (inactive)	> 100 µM (inactive)	> 100 µM (inactive)	> 100 µM (inactive)	> 100 µM
CN(C)c1c([O-])c(=[N+](C)C)c1=O	> 100 µM (inactive)	> 100 µM (inactive)	> 100 µM (inactive)	> 100 µM (inactive)	> 100 µM (inactive)	> 100 µM (inactive)	> 100 µM (inactive)	> 100 µM (inactive)		> 100 µM (inactive)	> 100 µM (inactive)	> 100 µM (inactive)	> 100 µM (inactive)	> 100 µM (inactive)	> 100 µM (inactive)	> 100 µM (inactive)	> 100 µM
CCOC(=O)Cc1csc(Nc2ccc(OCC)cc2)n1	> 100 µM (inactive)	> 100 µM (inactive)	> 100 µM (inactive)	> 100 µM (inactive)	> 100 µM (inactive)	50.7 µM (inactive)	> 100 µM (inactive)	40.4 µM (inactive)	> 100 µM (inactive)	> 100 µM (inactive)	> 100 µM (inactive)	> 100 µM (inactive)		> 100 µM (inactive)	> 100 µM (inactive)	> 100 µM (inactive)	> 100 µM
N#CCc1nnc(N)o1	> 100 µM (inactive)		> 100 µM (inactive)	> 100 µM (inactive)		> 100 µM (inactive)	> 100 µM (inactive)	> 100 µM (inactive)			> 100 µM (inactive)	> 100 µM (inactive)	> 100 µM (inactive)	> 100 µM (inactive)	> 100 µM (inactive)	> 100 µM (inactive)	> 100 µM
CNS(=O)(=O)NNS(=O)(=O)c1ccc(Cl)cc1	> 100 µM (inactive)	> 100 µM (inactive)	> 100 µM (inactive)	48.2 µM (inactive)	> 100 µM (inactive)	> 100 µM (inactive)			> 100 µM (inactive)	> 100 µM (inactive)	> 100 µM (inactive)	> 100 µM (inactive)	> 100 µM (inactive)	> 100 µM (inactive)	> 100 µM (inactive)	> 100 µM (inactive)	
Cc1cc2c3ccccc3n(C)c2c2c1C(=O)c1ccccc1C2=O	33.5 µM (inactive)	18.3 µM (inactive)	7.82 µM (inactive)	10.5 µM (inactive)		15.6 µM (inactive)		29.2 µM (inactive)	21.1 µM (inactive)	19.2 µM (inactive)		21.3 µM (inactive)	19.1 µM (inactive)	32.5 µM (inactive)	16.5 µM (inactive)	25 µM (inactive)	
